Patent US9879038B2, “Salt of tenofovir disoproxil” (JW Pharmaceutical Corporation, priority 2014, dated 2018)
“Also recorded” adds a separate entry of the source. Values belong to the compound of their own block, whether it stands above or below them.

What was measured:
Type in all cases: physicochemical
[1] = Evaluation of saturation solubility; design: saturation solubility: unit not given here; conditions: for solubility: thermodynamic from solid
Experimental: The saturation solubility of the tenofovir disoproxil hemi-edisylate of the present invention (Example 1) and the tenofovir disoproxil fumarate salt (Comparative Example 1) as a control group were evaluated.

[2] = Evaluation of stability (stressed conditions) depending on generation of related substances, HPLC (USP); conditions: for related substance generated: FIG. 1c
Experimental: In order to evaluate stability (stressed conditions), according to the ICH guidelines, tenofovir disoproxil edisylate of the present invention (Example 1: TDE) and tenofovir disoproxil fumarate (Comparative Example 1: TDF) as a control group were used, and analyzed using high-perfoiinance liquid chromatography (HPLC) as set forth in the U.S. Pharmacopeia (USP). The results are shown in Table 1 below (stressed conditions: 60±2° C.).
The tenofovir disoproxil hemi-edisylate of the present invention (Example 1: TDE (hemi salt)), serving as a test group, and tenofovir disoproxil mono-edisylate (Comparative Example 2: TDE (mono salt)), serving as a control group, were evaluated for stability for 3 weeks in the same manner as in (1) above.

[3] = Evaluation of stability depending on changes in pH; conditions: deionized water and pH 1.2, 4.0, 6.8 buffers, 30° C., HPLC, FIGS. 2 and 3
Experimental: When a drug is orally administered, it is absorbed in vivo through the stomach, duodenum, small intestine, etc. […] In the present invention, stability was measured using deionized water and three different pH buffer solutions (at pH 1.2, 4.0, and 6.8) for release testing. A test method was performed in a manner in which 5 mg of each of the tenofovir disoproxil hemi-edisylate of the present invention and the tenofovir disoproxil fumarate as a control group was accurately weighed, completely dissolved in 1 mL of a mixture of acetonitrile and water (1:19), and then added with 9 mL of each of the above pH buffer solutions. The individual samples thus prepared were placed in a chamber at 30° C. and changes in the amounts thereof over time were quantified using HPLC.

[4] = stressed conditions 60±2° C., 7 days
[5] = stressed conditions 60±2° C., 14 days
[6] = stressed conditions 60±2° C., 21 days
[7] = stressed conditions 60±2° C., Initial

solubility ([1]; aqueous buffer, pH 4.0): 13.2 mg/mL
solubility ([1]; pH 1.2, simulated gastric fluid): 39.2 mg/mL
solubility ([1]; pH 6.8, aqueous buffer): 9.4 mg/mL
solubility ([1]; DW (Deionized Water)): 13.5 mg/mL
Related substances: Adenine [2, 4]: 0.01%
Related substances: Tenofovir isoproxil monoester [2, 4]: 0.79%
Related substances: Unspecified impurity-1 [2, 4]: 0.01%
Related substances: Unspecified impurity-2 [2, 4]: 0.09%
Related substances: Unspecified impurity-3 [2, 4]: 0.03%
Related substances: Unspecified impurity-5 [2, 4]: 0.21%
Related substances: Adenine [2, 5]: 0.01%
Related substances: Tenofovir isoproxil monoester [2, 5]: 1.26%
Related substances: Unspecified impurity-1 [2, 5]: 0.05%
Related substances: Unspecified impurity-2 [2, 5]: 0.27%
Related substances: Unspecified impurity-3 [2, 5]: 0.04%
Related substances: Unspecified impurity-4 [2, 5]: 0.04%
Related substances: Unspecified impurity-5 [2, 5]: 0.63%
Related substances: Unspecified impurity-6 [2, 5]: 0.07%
Related substances: Unspecified impurity-7 [2, 5]: 0.42%
Related substances: Adenine [2, 6]: 0.01%
Related substances: Tenofovir isoproxil monoester [2, 6]: 1.81%
Related substances: Unspecified impurity-2 [2, 6]: 0.18%
Related substances: Unspecified impurity-3 [2, 6]: 0.03%
Related substances: Unspecified impurity-5 [2, 6]: 0.21%
Related substances: Adenine [2, 7]: 0.01%
Related substances: Tenofovir isoproxil monoester [2, 7]: 0.42%
Related substances: Unspecified impurity-2 [2, 7]: 0.03%
Related substances: Unspecified impurity-3 [2, 7]: 0.02%
Related substances: Unspecified impurity-5 [2, 7]: 0.05%
Compound: CC(C)OC(=O)OCOP(=O)(CO[C@H](C)Cn1cnc2c(N)ncnc21)OCOC(=O)OC(C)C.O=C(O)/C=C/C(=O)O [TDF, 9-[2-(R)-[[bis[[(isopropoxycarbonyl)oxy]methoxy]phosphinoyl]methoxy]propyl]adenine fumaric acid (1:1)]

Compound: 9-[(R)-2-[[bis[[(isopropoxycarbonyl)oxy]methoxy]phosphinyl]methoxy]propyl]adenine hemiedisylate [TDE]
saturation solubility ([1]; DW (Deionized Water)): 2200
saturation solubility ([1]; pH 1.2): 2680
saturation solubility ([1]; pH 4.0): 2280
saturation solubility ([1]; pH 6.8): 2400
stability under stressed conditions (in words) ([2]; stressed conditions 60±2° C., 3 weeks, versus control salt, listed as tenofovir disoproxil hemi-edisylate): very stable under stressed conditions compared to the disoproxil fumarate; also recorded: very stable under stressed conditions compared to the tenofovir disoproxil mono-edisylate
Related substances: Tenofovir disoproxil ethyl ester [2, 4]: 0.02%
Related substances: Tenofovir isopropyl isoproxil [2, 4]: 0.04%
Related substances: Tenofovir isoproxil monoester [2, 4]: 0.27%
Related substances: Tenofovir disoproxil ethyl ester [2, 5]: 0.01%
Related substances: Tenofovir isopropyl isoproxil [2, 5]: 0.04%
Related substances: Tenofovir isoproxil monoester [2, 5]: 0.30%
Related substances: Tenofovir disoproxil ethyl ester [2, 6]: 0.02%
Related substances: Tenofovir isopropyl isoproxil [2, 6]: 0.04%
Related substances: Tenofovir isoproxil monoester [2, 6]: 0.37%
Related substances: Tenofovir disoproxil ethyl ester [2, 7]: 0.01%
Related substances: Tenofovir isopropyl isoproxil [2, 7]: 0.04%
Related substances: Tenofovir isoproxil monoester [2, 7]: 0.26%
related substance generated ([2]; stressed conditions, 3rd week): 0.37
stability superior to that of tenofovir disoproxil mono-edisylate ([2]; stressed conditions, 3rd week, related substance 0.37 vs 5.62): at least 15 times
stability depending on changes in pH [3]: stability equal to that of a conventional tenofovir disoproxil fumarate product

related substance generated ([2]; stressed conditions, 3rd week): 5.62
Compound: CC(C)OC(=O)OCOP(=O)(COC(C)Cn1cnc2c(N)ncnc21)OCOC(=O)OC(C)C.O=S(=O)(O)CCS(=O)(=O)O (centres unmarked) [tenofovir disoproxil mono-edisylate, Tenofovir disoproxil mono-edisylate]
